Laboratory results from publication PMC9845330 (Communications Biology, 2023).
Non-standard residues stand in square brackets, D forms with d. Residues, ends and D or L forms follow the SMILES beside them. *: point of attachment. X1 = O=C(CCCC[C@@H]1SC[C@@H]2NC(=O)N[C@@H]21)NCCCOCCOCCOCCCN*; PEG12 = NCCOCCOCCOCCOCCOCCOCCOCCOCCOCCOCCOCCOCCC(=O)O

Legend:
Stability in human serum = assay type: in vitro ADME; conditions: 100% human serum, 48 h, 37 °C, serum proteins precipitated, analytical HPLC, MALDI TOF/TOF MS
Procedure: To address if acetylation is effective in reducing serum degradation of MGS4, acetylated (MGS4_V8) and non-acetylated (MGS4_V4) peptides were dissolved in human serum and incubated for 48 h at 37 °C. The peptides were monitored by analytical HPLC, and products were verified via MALDI TOF/TOF™ MS. […] Instead, a mixture of peptide fragments is detected, none of which correspond to the mass of the starting peptide (Supplemental Table 1 and Supplemental Fig. 2). The major products are shorter fragments corresponding to the loss of the five N-terminal amino acids. Fragments related to QSFYT-PEG11, SFYT-PEG11 and FYT-PEG11 are observed.
Supplemental Figure 1. […]
M GS4_V4 (non-acetylated, panel a) and M GS4_V8 (acetylated, panel b ) were incubated in 100% human serum for 0 and 48-hours. Serum proteins were precipitated, and the peptide was analyzed by analytical
HPLC. The mass of the peptide and degradation products were determined by MALDI MS and are […]
MGS4_V8, MGS4_V9, or MGS4_V10 were conjugated with streptavidin-Alexa Fluor 650 and were incubated with the indicated cell line for 1 hour. Non-internalized peptide was rem ov ed, and the mean number of peptides internalized per cell was determined to calculate the EC50. […]
Supplemental Figure 4 : Peptide-Streptavidin conjugates are nontoxic to cells. a. […] After 72 hours, viability was measured. […]

[1] = system: normal human bronchial epithelial cell line (HBEC); assay: Cell internalization by flow cytometry in normal control cells; assay type: cell-based; conditions: 50 nM, 1 h
Source text: Optimizing MGS4 as a monomer is efficient but the optimal valency of the truncated peptide may be different than that of the full-length peptide. The peptide was synthesized as a monomer (MGS4_V8), dimer (MGS4_V9), and tetramer (MGS4_V10). To obtain quantitative data, we moved from measuring the relative fluorescence of dye-labeled peptide to the determination of the average number of dye molecules internalized per cell. […] The dimer MGS4_V9 has an EC50 7-fold lower indicating there is a synergistic effect in going from a monomer to a dimer (Fig. 2a and Table 2). However, there is only a 2-fold decrease in going from a dimer to a tetrameric peptide (MGS4_V10). We also calculated the EC50 on three other NSCLC cell lines (Table 2 and Supplementary Figure 3). […]
Non-internalized peptide was removed, and the mean number of peptides internalized per cell was determined to calculate the EC50. […] Error bars, in black, represent standard error measurements and are below the height of the symbols in some cases. b The average number of peptide molecules per cell at 50 nM at 1 h was determined on four NSCLC cell lines and one normal human bronchial epithelial cell line (HBEC). […]
Biotinylated peptide was conjugated to streptavidin-R-phycoerythrin or streptavidin-Alexa Fluor 647 (1:1 molar ratio) for 30 min. […] Flow cytometry was performed on a BD FACSCelesta, and data were analyzed on Flowing software. […]

CC(=O)N[C@@H](Cc1ccccc1)C(=O)N[C@@H](Cc1c[nH]cn1)C(=O)N[C@@H](C)C(=O)N[C@H](C(=O)N1CCC[C@H]1C(=O)N[C@@H](CCC(N)=O)C(=O)N[C@@H](CO)C(=O)N[C@@H](Cc1ccccc1)C(=O)N[C@@H](Cc1ccc(O)cc1)C(=O)N[C@H](C(=O)NCCOCCOCCOCCOCCOCCOCCOCCOCCOCCOCCOCCOCCC(=O)N[C@@H](CCC(=O)NCCCOCCOCCOCCCNC(=O)CCCC[C@@H]1SC[C@@H]2NC(=O)N[C@@H]21)C(N)=O)[C@@H](C)O)C(C)C [MGS4_V8] (Ac-FHAVPQSFYT[PEG12]E(X1)-NH2)
peptide after incubation in human serum (Stability in human serum): only full-length peptide observed
internalization in normal cells [1]: minimal internalization
